Measurements taken from patent US20130142847A1, “S-ADENOSYLMETHIONINE FORMULATIONS WITH ENHANCED BIOAVAILABILITY” (Methylation Sciences, Inc., priority 2009, published 2013).
One block for each compound: values may come before it.

Experiments:
[1] = tested on: Caco-2 cell monolayers; assay: Caco-2 permeability of SAMe in the presence of tight junction modulators (Examples 3a, 3c); details: for Permeability Coefficient: SAMe permeability; for Fold Transport Increase: SAMe transport vs SAMe control; for change in SAMe permeability across the Caco-2 cell monolayer: sulfobetaine 0.15 mM as the enhancer; for effect on SAMe uptake / SAMe permeability: in the presence of the agent, result in words
Protocol: (§1) Similar to the description above, the Caco-2 cell line was obtained from ATCC and grown in DMEM (Sigma-Aldrich) supplemented with 20% FBS (Sigma-Aldrich), 100 uM non-essential amino acids (Sigma-Aldrich) and 2 mM L-glutamine (Sigma-Aldrich). The Caco-2 cells grown in tissue culture flasks were trypsinized, suspended in medium, and the suspensions were applied to wells of a collagen-coated BioCoat Cell Environment in 24-well format at 24,500 cells per well. The cells were allowed to grow and differentiate for three weeks, feeding at 2-day intervals.
(§2) For apical to basolateral permeability, a 2 mM aqueous solution of SAMe tosylate disulfate was added to the apical side and the amount of permeation was determined on the basolateral side. The apical and basolateral side buffers contained modified Transport Buffer (25 mM HEPES, 1× Hank's Balanced Salt Solution (Sigm-Aldrich)) pH 7.4. Caco-2 cells were incubated with these buffers for 2 hours, and the receiver side buffer was removed for analysis by LC/MS/MS. The receiver, donor, and dosing solution were diluted with an equal volume of 0.2 N HCl immediately after the assay in order to increase SAMe stability. Donor and dosing solution were diluted 100-fold to ensure that the concentration was within the linear range of the assay.
(§3) The permeability (Papp) of SAMe is calculated using the following formula:
(§4) Where dQ/dt is the rate of permeation, C0 is the initial concentration of test agent, and A is the area of the monolayer.
(§5) In vitro Caco-2 testing was performed as detailed above using 0.15 mM of sulfobetaine-10, sulfobetaine-12, sulfobetaine-14, sulfobetaine-16, or sulfobetaine-18 as the enhancer.

[2] = tested on: Caco-2 cell monolayers; assay: 24 hour resistance recovery test (Caco-2 cell recovery post treatment); format: cell-based, human
Protocol: As part of these in vitro studies, the degree of Caco-2 cell recovery (as observed by degree of permeability and cell attachment 24 hours post treatment with each tight junction modulator) was also investigated. This 24 hour resistance recovery test is an indirect measure of epithelial cell disruption and data supporting a trend toward less in vitro disruption may be associated with less impact in vivo.

[3] = Single dose pharmacokinetic study of enteric coated SAMe capsules in fasted male beagle dogs; format: in vivo; details: for effect on in vivo bioavailability of SAMe / amount of SAMe in the plasma versus control: beagle dogs, capsule 200 mg SAMe ion + 200 mg enhancer vs control capsule, result in words
Protocol: Following collection, samples were centrifuged (at 4° C.) to separate the plasma fraction from the blood cells. The resulting plasma fraction was recovered and stored frozen (at −80° C.) using polypropylene tubes pending bioanalytical analysis.
This method employs stable-isotope dilution liquid chromatography-electrospray […] tandem mass spectrometry (LC-ESI-MS/MS) to determine SAMe and SAH in plasma.

[4] = tested on: Caco-2 cell monolayers; assay: Permeability of SAMe across Caco-2 cell monolayers (Example 3); details: for Papp_a-b Apical to Basal: apical to basolateral; for Papp_a-b Apical to Basal / Papp_b-a Basal to Apical: HBSS pH 7.4, 120 minute incubation, SAMe salt 2 mM; for Papp_b-a Basal to Apical: basolateral to apical
Protocol: (§6) In these models, pure cell lines are grown on a semi-permeable membrane. Drug formulations are placed on the apical or basolateral side of the cell monolayer and transport is determined via measurement of drug concentrations on the other side of the membrane.
(§7) The Caco-2 cell line utilized here was from the American Type Culture Collection (ATCC). Caco-2 cells are grown in Dulbecco's modified Eagle's medium (DMEM, Gibco) supplemented with 20% FBS (fetal bovine serum, Gibco), 100 uM non-essential amino acids (NEAA, Gibco) and 2 mM L-glutamine (Gibco). A Beckton Dickinson BIOCOAT® HTS Caco-2 Assay System Kit is used resulting in 6.6×10^5 cells/cm^2 seeding density (BIOCOAT is a registered trademark of Collaborative Biomedical Products, Inc., Bedford, Mass., USA). The cells used in transport studies are grown for 3 days before the experiments. The culturing conditions are 37° C. in an atmosphere of 5% CO2 and 100% humidity.
(§8) For permeability across Caco-2 cell monolayers, the transport medium used was Hank's Buffered Salt Solution (HBSS; purchased from Gibco) containing D-glucose, and HEPES pH adjusted to 7.4. A 2 mM aqueous solution of either SAMe tosylate disulfate or SAMe 1,4 butanedisulfonate was added on the apical or basolateral side according to the manufacturer's procedure for the Caco-2 kit. Samples were measured after 120 minute incubation by liquid chromatography-mass spectrometry (LC/MS). The integrity of the monolayers was monitored using Lucifer Yellow Assay. […] Propranolol is a high permeability marker and was utilized as a positive control for a readily absorbed molecule.

[5] = as above; details: human, Caco-2, pH 7.4
Protocol: as §6, §7, §8

[6] = Caco-2 permeability of SAMe in the presence of tight junction modulators (Examples 3a, 3c); details: human, Caco-2, pH 7.4, Permeability Coefficient, permeability control compound itself, 50 uM
Protocol: as §1, §2, §3, §4, §5

[7] = Plasma SAMe metabolites after 1600 mg of a commercially available SAMe formulation; format: in vivo; details: all time points after 1600 mg dose of commercially available SAMe; seven subjects
Protocol: This finding is in contrast to the general dogma surrounding SAMe metabolism which continually reports that low SAMe bioavailability is due to active metabolism by the liver upon administration. […] In order to test this theory, the inventors measured the level of S-adenosyl homocysteine (SAH), the primary metabolite of SAMe, at various time points after administration of a 1600 mg dose of a commercially available SAMe formulation.

[8] = literature reports; cited from earlier work
[9] = tested on: cultured rat hepatocytes; details: McMillan et al. 2005; cited from earlier work
[10] = tested on: Caco-2 cells; details: McMillan et al. 2005; cited from earlier work
[11] = plasma, fasted male beagle dogs, single oral enteric coated capsule, 200 mg SAMe ion with or without 200 mg enhancer

Permeability Coefficient ([1]; enhancer 0.15 mM (Table 7)): 0.654 ×10⁻⁶ cm/s
Fold Transport Increase ([1]; enhancer 0.15 mM (Table 7)): 5.0X
change in SAMe permeability across the Caco-2 cell monolayer [1]: at least a five-fold increase
TEER Resist. 24 hour post assay ([2]; enhancer 0.15 mM): 1892 ohms
SAMe AUC [3, 11]: 10226 ng·h/mL
SAMe Cmax [3, 11]: 4148 ng/mL
SMILES: CCCCCCCCCCCCCC[N+](C)(C)CCCS(=O)(=O)[O-] [Sulfobetaine-14]
effect on in vivo bioavailability of SAMe / amount of SAMe in the plasma versus control [3]: significant increase in the bioavailability of SAMe

Permeability Coefficient ([1]; enhancer 0.15 mM (Table 7)): 0.218 ×10⁻⁶ cm/s
Fold Transport Increase ([1]; enhancer 0.15 mM (Table 7)): 1.2X
TEER Resist. 24 hour post assay ([2]; enhancer 0.15 mM): 1553 ohms
SMILES: CCCCCCCC[N+](C)(C)CCCS(=O)(=O)[O-] [Sulfobetaine-8]

effect on SAMe uptake / SAMe permeability [1]: marked increase in SAMe permeability
change in SAMe permeability across the Caco-2 cell monolayer [1]: at least a five-fold increase
TEER Resist. 24 hour post assay ([2]; enhancer 0.6 mM): 33 ohms
SMILES: CCCCCCCCCCCCCCCC[N+](C)(C)CCCS(=O)(=O)[O-] [3-(N,N-Dimethylpalmitylammonio)propanesulfonate]
effect on in vivo bioavailability of SAMe / amount of SAMe in the plasma versus control [3]: significant increase in the amount of SAMe present in the plasma

Papp_a-b Apical to Basal [4]: 0.5 ×10⁻⁶ cm/s
Papp_b-a Basal to Apical [4]: 0.6 ×10⁻⁶ cm/s
SMILES: C[S+](CC[C@H](N)C(=O)[O-])C[C@H]1O[C@@H](n2cnc3c(N)ncnc32)[C@H](O)[C@@H]1O.O=S(=O)(O)CCCCS(=O)(=O)O (stereo partly drawn) [SAMe 1,4 butanedisulfonate]

change in SAMe permeability across the Caco-2 cell monolayer [1]: did not improve SAMe permeability
SMILES: CCCCCCCCCC[N+](C)(C)CCCS(=O)(=O)[O-] [sulfobetaine-10]

SMILES: CCCCCCCCCC(=O)[O-].[Na+] [Sodium Caprate]
effect on in vivo bioavailability of SAMe / amount of SAMe in the plasma versus control [3]: did not enhance the in vivo bioavailability of SAMe

Papp_a-b Apical to Basal [4]: 22.4 ×10⁻⁶ cm/s
Papp_b-a Basal to Apical [4]: 18.4 ×10⁻⁶ cm/s
Papp A→B at 120 min [5]: 22.4 ×10⁻⁶ cm/s
Papp B→A at 120 min [5]: 18.4 ×10⁻⁶ cm/s
SMILES: CC(C)NCC(O)COc1cccc2ccccc12 (stereo not drawn) [Propranolol]

Papp at 2 h, 50 uM ([6]; run 2): 0.91 ×10⁻⁶ cm/s
Papp at 2 h, 50 uM ([6]; run 3): 0.91 ×10⁻⁶ cm/s
Papp at 2 h, 50 uM ([6]; run 4): 1 ×10⁻⁶ cm/s
SMILES: CNC(=C[N+](=O)[O-])NCCSCc1ccc(CN(C)C)o1 [Ranitidine, reference compound]

SMILES: CCCCCCCCCCCCCCCC(=O)OC(CC(=O)O)C[N+](C)(C)C.[Cl-] (stereo not drawn) [Palmitoyl Carnitine Chloride (PCC), Palmitoyl carnitine chloride]
Permeability Coefficient ([1]; test article 0.15 mM, run 2): 0.78 ×10⁻⁶ cm/s
Permeability Coefficient ([1]; test article 0.15 mM, run 4): 5 ×10⁻⁶ cm/s
Permeability Coefficient ([1]; test article 0.4 mM, run 4): 10 ×10⁻⁶ cm/s
effect on SAMe uptake / SAMe permeability [1]: marked increase in SAMe permeability

Permeability Coefficient ([1]; enhancer 0.15 mM (Table 7)): 0.649 ×10⁻⁶ cm/s
Fold Transport Increase ([1]; enhancer 0.15 mM (Table 7)): 5.0X
change in SAMe permeability across the Caco-2 cell monolayer [1]: at least a five-fold increase
TEER Resist. 24 hour post assay ([2]; enhancer 0.15 mM): 292 ohms
SMILES: CCCCCCCCCCCCCCCCCC[N+](C)(C)CCCS(=O)(=O)[O-] [Sulfobetaine-18]

Papp at 2 h, 50 uM ([6]; run 2): 48.8 ×10⁻⁶ cm/s
Papp at 2 h, 50 uM ([6]; run 3): 49 ×10⁻⁶ cm/s
Papp at 2 h, 50 uM ([6]; run 4): 46.6 ×10⁻⁶ cm/s
SMILES: CC(=O)CC(c1ccccc1)c1c(O)c2ccccc2oc1=O (stereo not drawn) [Warfarin, reference compound]

SMILES: Nc1ncnc2c1ncn2[C@@H]1O[C@H](CSCC[C@H](N)C(=O)O)[C@@H](O)[C@H]1O [SAH, S-adenosyl homocysteine]
plasma concentration of SAH relative to SAMe [7]: significantly lower than the level of SAMe itself

SMILES: C[S+](CC[C@H](N)C(=O)O)C[C@H]1O[C@@H](n2cnc3c(N)ncnc32)[C@H](O)[C@@H]1O (stereo partly drawn) [SAMe, S-adenosyl-L-methionine]
SAMe bioavailability when orally administered [8]: less than 5%
absorption by cultured rat hepatocytes [9]: poorly absorbed
fold increase in SAMe permeability ([4]; calcium-free buffer): 13-24 fold
transport through a monolayer of Caco-2 cells [10]: poorly transported

Permeability Coefficient ([1]; enhancer 0.15 mM (Table 7)): 0.257 ×10⁻⁶ cm/s
Fold Transport Increase ([1]; enhancer 0.15 mM (Table 7)): 1.4X
change in SAMe permeability across the Caco-2 cell monolayer [1]: did not improve SAMe permeability
TEER Resist. 24 hour post assay ([2]; enhancer 0.15 mM): 1923 ohms
SMILES: CCCCCCCCCCCC[N+](C)(C)CCCS(=O)(=O)[O-] [Sulfobetaine-12]
